From US5866577A, “Aromatic amidine derivatives and salts thereof” (priority 1991, dated 1999)
Counter-ions that a name gives are not always drawn.

Experiments:
thrombin = biological target: T1, thrombin (Bos taurus, UniProt P00735); experiment: Measurement of Thrombin Inhibition Activity; type: biochemical
T1 construct: thrombin (for topical application use, Sankyo Co., Ltd.); purchased Sankyo Co., Ltd
Procedure: Measurement of Thrombin Inhibition Activity
A 100 μl portion of Tris-HCl buffered saline (pH 7.45) (TBS) containing 6 mg/ml of fibrinogen (Type 1, Daiichi Pure Chemicals Co., Ltd.) was mixed with 100 μl of physiological saline solution. At 37° C., 100 μl of Tris-HCl buffered saline (pH 7.45) (TBS) containing varying amounts of thrombin (for topical application use, Sankyo Co., Ltd.) was added to the mixture prepared above to measure clotting time using CLOTEC (Sanko Junyaku Co., Ltd.) and to prepare a calibration curve.

human FXa = human FXa (Homo sapiens, UniProt P00742); experiment: Measurement of Activated Blood Coagulation Factor X (FXa) Inhibition Activity; type: biochemical; conditions: substrate S-2222, 37° C., 15 minutes
Sequence of human FXa (P00742 235-488 limits assumed): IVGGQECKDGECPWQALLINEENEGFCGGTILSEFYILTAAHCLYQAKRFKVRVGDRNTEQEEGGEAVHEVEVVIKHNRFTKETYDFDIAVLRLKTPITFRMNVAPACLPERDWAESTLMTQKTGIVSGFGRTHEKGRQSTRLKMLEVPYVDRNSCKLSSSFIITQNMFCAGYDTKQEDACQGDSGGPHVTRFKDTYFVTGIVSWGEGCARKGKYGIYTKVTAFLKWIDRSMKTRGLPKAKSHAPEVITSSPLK
Sequence of human FXa (P00742 41-179 limits assumed): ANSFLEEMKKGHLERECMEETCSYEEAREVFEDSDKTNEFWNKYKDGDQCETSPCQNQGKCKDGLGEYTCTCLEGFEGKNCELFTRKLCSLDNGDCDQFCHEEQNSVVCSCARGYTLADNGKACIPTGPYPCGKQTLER
Procedure: Measurement of Activated Blood Coagulation Factor X (FXa) Inhibition Activity
A 180 μl portion of physiological saline solution containing a compound to be tested was mixed with 200 μl of Tris-HCl buffer (pH 8.4) and 100 μl of 1 mM S-2222 (KabiVitrum AB) aqueous solution, and the mixture was incubated at 37° C. 20 μl of Tris-HCl buffered saline (pH 7.45) containing 0.6 unit/ml of human FXa was added to the mixture. After 15 minutes of incubation at the same temperature, the reaction was stopped by adding 100 μl of 60% acetic acid, and absorbance of the reaction mixture was measured. A reaction mixture with no addition of a test compound was used as a blank, and another reaction mixture in which 60% acetic acid was added prior to the addition of FXa was used as a control.

[1] = test system: human blood plasma (clotting time); experiment: Measurement of Anticoagulant Activity (plasma clotting time, CT2); type: biochemical; conditions: concentration which doubles the control clotting time, 37° C.
Procedure: Measurement of Anticoagulant Activity A blood plasma sample was prepared from human blood using a centrifuge. […] Thereafter, clotting time was measured using CLOTEC (Sanko Junyaku Co., Ltd.). A clotting time measured without adding a compound to be tested was used as a control, and a concentration of the test compound which doubles the control clotting time was calculated (hereinafter referred to as "CT2") as an index of the anticoagulant activity.

[2] = test system: activated partial thromboplastin time (APTT); experiment: Measurement of Anticoagulant Activity in Oral Administration (APTT); type: in vivo, male STD:Wistar rat; conditions: rat, 100 mg/kg
Procedure: Measurement of Anticoagulant Activity in Oral Administration
An aqueous solution of each compound to be tested was administered orally to each male STD:Wistar rat individual under an anesthetic, at a dose of 10 ml/kg body weight. Blood samples were collected periodically and blood plasma preparations were obtained from the samples to measure activated partial thromboplastin time (APTT). In the same manner, APTT was measured by administering pure water and used as a control. A test/control APTT ratio was calculated and used as an index of the anticoagulant activity.

[3] = Measurement of Solubility in Water
Procedure: A fixed amount of water was added to a varying amounts of each sample, and the mixture was agitated on a shaker at 25° C. for 10 minutes.
male Slc:SD rats = experiment: Toxicity Test by Repeated Oral Administration to Rat; type: in vivo; conditions: rat, in vivo, po, 800 mg/kg
Procedure: Toxicity Test by Repeated Oral Administration to Rat
Each of the compounds of the present invention was dissolved in distilled water and administered orally to each of five five-week old male Slc:SD rats, at a dose of 800 mg/kg body weight. The oral administration was carried out once a day and repeated for 10 days to observe mortality.

Row | SMILES | IC50 (thrombin) [µM] | IC50 (human FXa) [µM] | Anti-Coagulation CT2 [1] [µM] | Test/Control APTT Ratio ([2]; 0.5 hr) | Test/Control APTT Ratio ([2]; 1 hr) | Test/Control APTT Ratio ([2]; 2 hr) | Test/Control APTT Ratio ([2]; 4 hr) | solubility at 10 min [3] [mg/mL] | Mortal Case (male Slc:SD rats)
1 | CC(=N)N1CCC[C@H]1COc1ccc(C(Cc2cc3cc(C(=N)N)ccc3s2)C(=O)O)cc1.Cl.Cl (single isomer, unassigned; (+)) [Inventive Example 41, Dihydrochloride] | 9 | 0.032 |  |  |  |  |  |  | 
2 | CC(=N)N1CCC[C@H]1COc1ccc(C(Cc2cc3cc(C(=N)N)ccc3s2)C(=O)O)cc1.Cl.Cl (single isomer, unassigned; (+)) [Inventive Example 41] |  |  | 0.32 |  |  |  |  |  | 
3 | CC(=N)N1CCC(Oc2ccc(C(Cc3ccc4ccc(C(=N)N)cc4c3)C(=O)O)cc2)CC1.Cl.Cl (single isomer, unassigned; (+)) [Inventive Example 43, (+)-2-[4-[(1-acetimidoyl-4-piperidinyl)oxy]phenyl]-3-(7-amidino-2-naphthyl)propionic Acid Dihydrochloride] | > 400 | 0.013 | 0.18 |  |  |  |  |  | 
4 | Cl.Cl.N=C(N)c1ccc2cc(CC(C(=O)O)c3ccc(O[C@H]4CCNC4)cc3)[nH]c2c1 (single isomer, unassigned; (+)) [Inventive Example 48, Dihydrochloride] | 50 | 0.36 |  |  |  |  |  |  | 
5 | Cl.Cl.N=C(N)c1ccc2cc(CC(C(=O)O)c3ccc(O[C@H]4CCNC4)cc3)[nH]c2c1 (single isomer, unassigned; (+)) [Inventive Example 48] |  |  | 3 | 1.46 | 1.42 | 1.41 | 1.18 |  | 
6 | Cl.Cl.N=C(N)c1ccc2oc(C(Cc3ccc(O[C@H]4CCNC4)cc3)C(=O)O)cc2c1 (stereo partly drawn) [Inventive Example 21, 2-(5-amidino-2-benzofuranyl)-3-[4-[((3S)-3-pyrrolidinyl)-oxy]phenyl]propionic Acid Dihydrochloride] |  |  |  |  |  |  |  | ≥ 600 | 
7 | Cl.Cl.N=C(N)c1ccc2sc(CC(CC(=O)O)c3ccc(O[C@H]4CCNC4)cc3)cc2c1 (stereo partly drawn) [Inventive Example 61, 4-(5-amidinobenzo[b]thien-2-yl)-3-[4-[((3S)-3-pyrrolidinyl)oxy]phenyl]butyric Acid Dihydrochloride] |  |  |  | 1.40 | 1.28 | 1.21 | 1.09 |  | 
8 | Cl.Cl.N=C(N)c1ccc2[nH]c(CC(C(=O)O)c3ccc(O[C@H]4CCNC4)cc3)cc2c1 (stereo partly drawn) [Inventive Example 68, 3-(5-amidino-2-indolyl)-2-[4-[((3S)-3-pyrrolidinyl)oxy]-phenyl]propionic acid Dihydrochloride] | 190 | 0.17 | 1.45 |  |  |  |  |  | 
9 | Cl.Cl.N=C(N)c1ccc2cc(CC(C(=O)O)c3ccc(O[C@H]4CCNC4)cc3)[nH]c2c1 (stereo partly drawn) [Inventive Example 69, 3-(6-amidino-2-indolyl)-2-[4-[((3S)-3-pyrrolidinyl)oxy]-phenyl]propionic Acid Dihydrochloride] |  |  |  |  |  |  |  |  | 0
10 | CCn1c(CC(C(=O)O)c2ccc(O[C@H]3CCNC3)cc2)cc2ccc(C(=N)N)cc21.Cl.Cl (stereo partly drawn) [Inventive Example 73, 3-(6-amidino-1-ethyl-2-indolyl)-2-[4-[((3S)-3-pyrrolidinyl)oxy]phenyl]propionic Acid Dihydrochloride] |  |  |  |  |  |  |  | ≥ 450 | 
11 | CC(=N)N1CC[C@H](Oc2ccc(C(Cc3nc4cc(C(=N)N)ccc4s3)C(=O)O)cc2)C1.Cl.Cl (stereo partly drawn) [Inventive Example 89, 2-[4-[((3S)-1-acetimidoyl-3-pyrrolidinyl)oxy]phenyl]-3-(5-amidino-2-benzothiazolyl)propionic Acid Dihydrochloride] | > 600 | 0.6 | 5 | 1.24 | 1.22 | 1.17 | 1.14 |  | 
12 | CCCCCC(=N)N1CC[C@H](Oc2ccc(C(Cc3cc4cc(C(=N)N)ccc4s3)C(=O)O)cc2)C1.Cl.Cl (stereo partly drawn) [Inventive Example 94, 3-(5-amidinobenzo[b]thien-2-yl)-2-[4-[((3S)-1-n-hexanimidoyl-3-pyrrolidinyl)oxy]phenyl]propionic Acid Dihydrochloride] | 370 | 0.1 | 1.1 |  |  |  |  |  | 
13 | Cl.Cl.N=C(N)c1ccc2sc(CC(C(=O)O)c3ccc(O[C@H]4CCN(C(=N)C5CC5)C4)cc3)cc2c1 (stereo partly drawn) [Inventive Example 95, 3-(5-amidinobenzo[b]thien-2-yl)-2-[4-[((3S)-1-cyclopropanecarboximidoyl-3-pyrrolidinyl)oxy]phenyl]propionic Acid Dihydrochloride] | 26 | 0.16 | 0.8 |  |  |  |  |  | 
14 | CC(=N)N1CCC[C@H]1COc1ccc(C(Cc2cc3cc(C(=N)N)ccc3s2)C(=O)O)cc1.Cl.Cl (stereo partly drawn) [Inventive Example 96, 2-[4-[((2S)-1-acetimidoyl-2-pyrrolidinyl)methoxy]phenyl]-3-(5-amidinobenzo[b]thien-2-yl)propionic Acid Dihydrochloride] | 29 | 0.044 | 0.54 | 1.68 | 1.64 | 1.57 | 1.42 | ≥ 400 | 
15 | CC(=N)N1CCC(Oc2ccc(C(Cc3cc4cc(C(=N)N)ccc4s3)C(=O)O)cc2)CC1.Cl.Cl (stereo not shown) [Inventive Example 97, 2-[4-[(1-acetimidoyl-4-piperidinyl)oxy]phenyl]-3-(5-amidinobenzo[b]thien-2-yl)propionic acid Dihydrochloride] | 170 | 0.045 | 0.23 |  |  |  |  |  | 
16 | CCn1c(CC(C(=O)O)c2ccc(OC3CCN(C(C)=N)CC3)cc2)cc2ccc(C(=N)N)cc21.Cl.Cl (stereo not shown) [Inventive Example 98, 2-[4-[(1-acetimidoyl-4-piperidinyl)oxy]phenyl]-3-(6-amidino-1-ethyl-2-indolyl)propionic Acid Dihydrochloride] | 2.5 | 0.011 | 0.3 | 4.07 | 3.96 | 3.37 | 2.19 |  | 
17 | CC(=N)N1CC[C@H](Oc2ccc(C(CC(=O)O)Cc3cc4cc(C(=N)N)ccc4s3)cc2)C1.Cl.Cl (stereo partly drawn) [Inventive Example 104, 3-[4-[((3S)-1-acetimidoyl-3-pyrrolidinyl)oxy]phenyl]4-(5-amidinobenzo[b]thien-2-yl)butyric Acid Dihydrochloride] | 230 | 0.086 | 0.64 |  |  |  |  | ≥ 450 | 
18 | CCn1c(CC(C(=O)O)c2ccc(O[C@H]3CCN(C(C)=N)C3)cc2)cc2ccc(C(=N)N)cc21 (stereo partly drawn) [Inventive Example 105, 2-[4-[((3S)-1-(acetimidoyl-3-pyrrolidinyl)oxy]phenyl]-3-(6-amidino-1-ethyl-2-indolyl)propionic Acid Dihydrochloride] | 6.8 | 0.054 | 0.35 | 2.69 | 3.60 | 2.41 | 1.66 |  | 
19 | CC(=N)N1CC[C@H](Oc2ccc(CC(C(=O)O)c3cc4cc(C(=N)N)ccc4s3)cc2)C1 (stereo partly drawn) [Inventive Example 106, 3-[4-[((3S)-1-acetimidoyl-3-pyrrolidinyl)oxy]phenyl]-2-(5-amidinobenzo[b]thien-2-ylpropionic Acid Dihydrochloride] | 100 | 0.56 | 2.3 |  |  |  |  |  | 
20 | CC(=N)N1CCC(Oc2ccc(C(Cc3ccc4ccc(C(=N)N)cc4c3)C(=O)O)cc2)CC1.Cl.Cl (stereo not shown) [Inventive Example 108, 2-[4-[(1-acetimidoyl-4-piperidinyl)oxy]phenyl]-3-(7-amidino-2-naphthyl)propionic Acid Dihydrochloride] | 250 | 0.018 | 0.3 | 2.12 | 2.18 | 1.69 | 1.39 | ≥ 350 | 
